Results published in patent publication US10766889B2, “Aryl-2,2′-tandem bisthiazole compound and preparation method and use thereof” (SHANGHAI INSTITUTE OF MATERIA MEDICA, CHINESE ACADEMY OF …, priority 2016, dated 2020).
Read-outs that look alike come from different tables or passages of the source.

What was measured:
[1] = tested on: human multiple myeloma cell line RPMI 8226; test: Cell level anti-tumor activity test, CCK-8, multiple myeloma cells; format: cell-based; conditions: RPMI-8226, 72 h
Protocol: According to the cell growth rate, the multiple myeloma cells in the logarithmic growth phase were inoculated into the 96-well culture plate at 100 μL/well, and then 1 μL/well of compound solution was added, and three replicate wells were set for each concentration, and the DMSO solvent control at corresponding concentration was also set.
CCK-8 staining method: after the drug was applied, 10 μL of CCK-8 solution was added to each well, and incubated at 37° C. for 3 h. The OD value at 450 nm and 690 nm was measured by microplate reader.
The inhibition rate (% Inhibiton) and activity (% Activity) of the test substance on the proliferation of multiple myeloma cells were calculated according to the following formula, wherein ODsample refers to the absorbance value of the administration hole (OD450-OD690). OD DMSO refers to the absorbance of the DMSO control well (OD450-OD690).
The logarithm of the concentration was plotted against the activity percentage (% Activity), and the fitted curve was calculated by nonlinear regression. The value of IC50 was calculated by using the GraphPad Prism5 software log(inhibitor) vs response—Variable slope parameter setting. Each set of experiments was repeated three times independently, while 3 replicate wells per concentration.

Lung Cancer A549 = test: Tumor cell proliferation inhibition, SRB; format: cell-based; conditions: Homo sapiens, 72 h, read-out: IC50 (mean ± SD) Lung Cancer A549
Protocol: The antitumor activity test of the example compounds was carried out, and the in vitro antitumor activities of the compounds were evaluated by measuring the growth inhibitory activities of the compounds against a plurality of human tumor cell lines.
Tumor cells (except MDA-MB-231) were routinely cultured under 37° C., 5% CO2.
According to the cell growth rate, the tumor cells in the logarithmic growth phase were inoculated into 96-well culture plates at 90 μL/well, and adherently grown for 24 h and then added with 10 μL/well, and each concentration was set to three replicate wells, and DMSO vehicle controls and cell-free wells at corresponding concentration were also set. Tumor cells (except MDA-MB-231) were cultured for 72 h under conditions of 37° C. and 5% CO2 (MDA-MB-231 cells were cultured at 37° C. without CO2). […] The OD value at 450 nm was measured by a microplate reader. […] After dried by convert placing in an oven, 150 μL of 10 mM Tris solution was added into each well, and the OD value at 560 nm was measured by a microplate reader.
The inhibition rate of tumor cell proliferation was calculated according to the following formula. The half-inhibition amount IC50 value was calculated by Log it method. […]

Lung Cancer EBC-1 = test: Tumor cell proliferation inhibition, SRB; format: cell-based; conditions: Homo sapiens, EBC-1, 72 h, read-out: IC50 (mean ± SD) Lung Cancer EBC-1
[2] = tested on: human myeloma RPMI 8226 NOD/SCID mouse xenografts; test: Pharmacological experiment in human myeloma RPMI 8226 NOD/SCID mouse transplantation model; format: in vivo
From the text: The efficacy of compound H08 in an animal model of human multiple myeloma was investigated.
NOD/SCID mice, female, 5-6 weeks old, body weight 20±3 g, provided by Shanghai Lingchang Biotechnology Co., Ltd., production certificate number: SCXK (Shanghai) 2013-0018. Number of animals per group: 6. IACUC number: 2013-0007 (Nanmo).
Human myeloma RPMI 8226 cell line was preserved by Li Jia et al., Shanghai Institute of Materia Medica. The cell line was inoculated to the right axillary fossa of NOD/SCID mice, and the amount of cells inoculated was 1×10^7 cells each mouse. After the transplanted tumor was formed, it was used in NOD/SCID mice after 2 passages.
The tumor tissue in the vigorous growth period was cut into 1.5 mm^3, and inoculated subcutaneously in the right axilla of the NOD/SCID mice under aseptic conditions. The diameter of the transplanted tumor of NOD/SCID mice were measured with a vernier caliper and the animals were randomly grouped when the tumor growed up to 100-300 mm^3. The grouping scheme is shown in Table 5, and the solvent control group was given an equal amount of blank solvent. The diameter of the transplanted tumor was measured twice a week during the entire experiment, and the body weight of the mice was weighed as well. The tumor volume (TV) was calculated as: TV=½×a×b^2, wherein a and b represent length and width, respectively. The relative tumor volume (RTV) was calculated based on the measured results and the formula was: RTV=Vt/V0. Wherein V0 is the tumor volume measured before grouping and dosing (d0), and Vt is the tumor volume at each measurement.

tumor cell = conditions: WO2012152208, background; read-out: IC50 tumor cell proliferation inhibitory activity; cited from earlier work
[3] = Preliminary metabolic experiments, oral bioavailability in mice; conditions: mouse, in vivo
human HDAC1 = target: T1, human HDAC1 (Homo sapiens, UniProt Q13547); test: Inhibition activity test of histone deacetylase 1 (fluorescence, Ac-Lys-Tyr-Lys(Ac)-AMC substrate); format: biochemical; conditions: mean of 3 experiments
T1 construct: made in house
T1 sequence (Q13547 whole entry): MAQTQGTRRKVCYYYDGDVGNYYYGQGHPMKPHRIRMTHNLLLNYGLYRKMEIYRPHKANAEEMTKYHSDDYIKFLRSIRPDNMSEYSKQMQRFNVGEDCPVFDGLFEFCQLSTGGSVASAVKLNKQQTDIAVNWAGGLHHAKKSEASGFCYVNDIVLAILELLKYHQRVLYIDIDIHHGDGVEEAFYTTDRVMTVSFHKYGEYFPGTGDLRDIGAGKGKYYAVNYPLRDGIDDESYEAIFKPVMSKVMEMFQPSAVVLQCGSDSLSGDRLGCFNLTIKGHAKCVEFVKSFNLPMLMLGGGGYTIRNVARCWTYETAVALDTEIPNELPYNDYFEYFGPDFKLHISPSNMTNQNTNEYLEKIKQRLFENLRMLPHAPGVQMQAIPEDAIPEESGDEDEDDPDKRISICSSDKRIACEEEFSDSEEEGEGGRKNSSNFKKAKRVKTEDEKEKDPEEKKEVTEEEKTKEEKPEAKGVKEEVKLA
Protocol: (§1) The inhibitory activity of the example compounds against human histone deacetylases 1, 3 and 6 (i.e., human HDAC1, HDAC3 and HDAC6) was tested.
(§2) Substrates: HDAC1, HDAC 3: Ac-Lys-Tyr-Lys (Ac)-AMC; HDAC6: Boc-lys (Ac)-AMC; all purchased from Shanghai Jill Biochemical Co., Ltd.
(§3) The activity of HDAC1 and HDAC3 was detected using Ac-Lys-Tyr-Lys(Ac)-AMC as substrate, and the activity of HDAC6 was detected using Boc-Lys(Ac)-AMC as substrate, and both were detected by fluorescence detection. […] The initial velocity of the reaction is calculated by detecting the change in the fluorescence signal over time.
(§4) The test compound, enzyme and reaction buffer were well mixed and the substrate was added to start the reaction. […]
(§5) The fluorescence signal intensity at 460 nm was measured, and then the activity percentage (% Activity) of each concentration groups of the sample was calculated. […]
(§6) The logarithm of the concentration was plotted against the percentage of activity, and then the nonlinear regression was used to calculate the fit curve. The value of IC50 was calculated by the software GraphPad Prism 5 formula log(inhibitor) vs. response—Variable slope.
(§7) Each of the above experiments was repeated 3 times, and there were more than 3 replicate wells for each experiment. The average IC50 value of the three experiments was determined as the final indicator of the compound inhibition ability.

human HDAC3 = target: T2, human HDAC3 (Homo sapiens, UniProt O15379); test: Inhibition activity test of histone deacetylase 3 (fluorescence, Ac-Lys-Tyr-Lys(Ac)-AMC substrate); format: biochemical; conditions: mean of 3 experiments
T2 construct: made in house
T2 sequence (O15379 whole entry): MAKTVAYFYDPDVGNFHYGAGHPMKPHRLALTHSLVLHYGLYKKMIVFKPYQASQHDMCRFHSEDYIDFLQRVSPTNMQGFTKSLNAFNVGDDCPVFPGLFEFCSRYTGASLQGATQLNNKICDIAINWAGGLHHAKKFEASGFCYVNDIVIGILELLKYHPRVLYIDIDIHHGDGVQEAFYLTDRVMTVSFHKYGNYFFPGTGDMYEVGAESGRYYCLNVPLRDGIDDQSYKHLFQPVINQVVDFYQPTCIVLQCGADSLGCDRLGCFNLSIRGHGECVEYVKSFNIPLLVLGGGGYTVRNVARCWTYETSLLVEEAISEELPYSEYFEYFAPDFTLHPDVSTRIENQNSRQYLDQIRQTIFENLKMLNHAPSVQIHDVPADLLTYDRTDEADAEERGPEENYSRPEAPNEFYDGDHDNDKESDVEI
Protocol: as §1, §2, §3, §4, §5, §6, §7

human HDAC6 = target: T3, human HDAC6 (Homo sapiens, UniProt Q9UBN7); test: Inhibition activity test of histone deacetylase 6 (fluorescence, Boc-Lys(Ac)-AMC substrate); format: biochemical; conditions: mean of 3 experiments
T3 construct: made in house
T3 sequence (Q9UBN7 1-1215): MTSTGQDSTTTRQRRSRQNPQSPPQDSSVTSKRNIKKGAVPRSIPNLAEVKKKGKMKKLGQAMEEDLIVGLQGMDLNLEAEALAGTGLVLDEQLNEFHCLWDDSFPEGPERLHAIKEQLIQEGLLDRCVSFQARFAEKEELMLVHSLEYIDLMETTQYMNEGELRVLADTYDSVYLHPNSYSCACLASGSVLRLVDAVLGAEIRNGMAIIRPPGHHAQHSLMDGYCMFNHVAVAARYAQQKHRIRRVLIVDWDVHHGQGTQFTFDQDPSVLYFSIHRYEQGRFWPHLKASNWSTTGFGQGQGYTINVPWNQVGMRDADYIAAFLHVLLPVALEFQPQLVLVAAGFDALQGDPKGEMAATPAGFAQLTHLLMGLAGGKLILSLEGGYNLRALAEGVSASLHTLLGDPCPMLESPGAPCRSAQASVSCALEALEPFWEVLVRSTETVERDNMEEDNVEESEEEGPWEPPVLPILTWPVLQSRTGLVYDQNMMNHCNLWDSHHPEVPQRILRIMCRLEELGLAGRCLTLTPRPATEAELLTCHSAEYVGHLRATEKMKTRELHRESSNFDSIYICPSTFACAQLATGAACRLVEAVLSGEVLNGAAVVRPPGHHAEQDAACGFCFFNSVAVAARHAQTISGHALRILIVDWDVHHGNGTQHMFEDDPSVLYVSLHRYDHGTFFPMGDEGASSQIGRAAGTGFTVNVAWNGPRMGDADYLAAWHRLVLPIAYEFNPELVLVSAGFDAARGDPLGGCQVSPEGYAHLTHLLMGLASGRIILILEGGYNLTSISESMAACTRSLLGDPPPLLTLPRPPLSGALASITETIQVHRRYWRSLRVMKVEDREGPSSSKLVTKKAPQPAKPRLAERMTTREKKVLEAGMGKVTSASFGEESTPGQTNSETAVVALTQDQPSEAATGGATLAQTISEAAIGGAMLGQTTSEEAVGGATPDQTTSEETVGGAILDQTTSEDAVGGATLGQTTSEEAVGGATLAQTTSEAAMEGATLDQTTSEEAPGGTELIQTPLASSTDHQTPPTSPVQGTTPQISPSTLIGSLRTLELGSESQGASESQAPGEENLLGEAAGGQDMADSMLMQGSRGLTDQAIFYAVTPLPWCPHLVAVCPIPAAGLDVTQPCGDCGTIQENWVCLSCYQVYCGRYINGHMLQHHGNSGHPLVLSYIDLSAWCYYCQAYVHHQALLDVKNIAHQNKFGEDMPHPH
Protocol: as §1, §2, §3, §4, §5, §6, §7

[4] = background, subsequent studies on 201410136196.7 compounds; cited from earlier work
Liver cancer BEL-7404 = test: Tumor cell proliferation inhibition, SRB; format: cell-based; conditions: Homo sapiens, 72 h, read-out: IC50 (mean ± SD) Liver cancer BEL-7404
Protocol: (§8) After the drug was applied, 10 μL of CCK-8 solution was added to each well in Ramos, HL-60, Molt-4, Raji, CCRF-CEM, and SU-DHL-6 tumor cell line experiments, and incubated at 37° C. for 2 h. The OD value at 450 nm was measured by a microplate reader. […] After dried by convert placing in an oven, the plate was taken out and 100 μL of SRB solution (4 mg/mL SRB powder dissolved in 1% glacial acetic acid) was added into each well. After standed at room temperature for 15 minutes, it was washed five times with 1% glacial acetic acid to completely remove the SRB which has not bounded to the plate protein. After dried by convert placing in an oven, 150 μL of 10 mM Tris solution was added into each well, and the OD value at 560 nm was measured by a microplate reader.
(§9) The inhibition rate of tumor cell proliferation was calculated according to the following formula. The half-inhibition amount IC50 value was calculated by Log it method. Inhibition rate=(control group OD value−administration group OD value)/control group OD value×100%. Each set of experiments was repeated three times independently, while 3 replicate wells per concentration.

stomach cancer MKN-74 = test: Tumor cell proliferation inhibition, SRB; format: cell-based; conditions: Homo sapiens, 72 h, read-out: IC50 (mean ± SD) stomach cancer MKN-74
Protocol: as §8, §9

[5] = tested on: Embryonic lung cells MRC-5; test: Cell proliferation inhibition, SRB; format: cell-based; conditions: Homo sapiens, MRC5, 72 h, read-out: IC50 (mean ± SD) Embryonic lung cells MRC-5
Protocol: as §8, §9

lymphoma Ramos = test: Tumor cell proliferation inhibition, CCK-8; format: cell-based; conditions: Homo sapiens, 72 h, read-out: IC50 (mean ± SD) lymphoma Ramos
Protocol: as §8, §9

promyeloid leukemia HL60 = test: Tumor cell proliferation inhibition, CCK-8; format: cell-based; conditions: Homo sapiens, HL-60, 72 h, read-out: IC50 (mean ± SD) promyeloid leukemia HL60
Protocol: as §8, §9

[6] = tested on: Acute lymphoblastic leukemia MOLT-4; test: Tumor cell proliferation inhibition, CCK-8; format: cell-based; conditions: Homo sapiens, 72 h, read-out: IC50 (mean ± SD) Acute lymphoblastic leukemia MOLT-4
Protocol: as §8, §9

[7] = tested on: Human blood lymphoma Raji; test: Tumor cell proliferation inhibition, CCK-8; format: cell-based; conditions: 72 h, read-out: IC50 (mean ± SD) Human blood lymphoma Raji
Protocol: as §8, §9

[8] = tested on: Acute lymphocytic leukemia T lymphocyte CCRF; test: Tumor cell proliferation inhibition, CCK-8; format: cell-based; conditions: Homo sapiens, 72 h, read-out: IC50 (mean ± SD) Acute lymphocytic leukemia T lymphocyte CCRF
Protocol: as §8, §9

[9] = read-out: IC50 (growth inhibition, RPMI 8226)
[10] = 100 mg/kg bid, p.o., 3 weeks, d21
[11] = read-out: IC50 (proliferation of RPMI 8226)
[12] = 25 mg/kg, p.o., once/day, 3 weeks
[13] = 25 mg/kg, p.o., once/day, 3 weeks, d21
[14] = 50 mg/kg, p.o., once/day, 3 weeks
[15] = 50 mg/kg, p.o., once/day, 3 weeks, d21
[16] = 1 mg/kg, i.v., twice/week for 3 weeks
[17] = 1 mg/kg, i.v., twice/week for 3 weeks, d21

In the case of COc1ccc(-c2cnc(-c3nc(C(=O)N[C@@H](C)c4ccc(C(=O)NO)cc4)c(C4CC4)s3)s2)cc1 [Compound H10], the IC50 [1, 9] is reported as 12 ± 4 nM.
With C[C@H](NC(=O)c1nc(-c2nc3c(s2)CCCC3)sc1C1CC1)c1ccc(C(=O)NO)cc1 [Compound H07] the IC50 [1, 9] was 139 ± 19 nM.
Work on O=C(CCCCCCC(=O)Nc1ccccc1)NO [SAHA, vorinostat] yielded an IC50 (Lung Cancer A549) of 2910 ± 678 nM and an IC50 (Lung Cancer EBC-1) of 1550 ± 474 nM.
For O=C(CCNC(=O)c1nc(-c2nccs2)sc1C1CC1)NO [bexanostat, reference compound], the IC50 [1, 9] was 690 ± 410 nM, the “TV d0 (average ± SD)” value ([2]; 100 mg/kg bid, p.o., 3 weeks) was 155 ± 46 mm^3 and the “body weight d0” value ([2]; 100 mg/kg bid, p.o., 3 weeks) was 22.2 ± 1.4 g. For the same compound, the “RTV (Average ± SD)” value [2, 10] was 4.83 ± 0.51, the “TV d21 (average ± SD)” value [2, 10] was 620 ± 87 mm^3 and the “body weight d21” value [2, 10] was 19.8 ± 1.0 g. For the same compound, the IC50 (tumor cell) was less than 400 nM.
Work on C[C@@H](NC(=O)c1nc(-c2ncc(-c3ccccc3)s2)sc1C1CC1)c1ccc(C(=O)NO)cc1 [Compound H11] yielded an IC50 [1, 9] of 326 ± 18 nM.
Cc1csc(-c2nc(C(=O)N[C@@H](C)c3ccc(C(=O)NO)cc3)c(C3CC3)s2)n1 [Compound H06] showed an IC50 [1, 9] of 50 ± 22 nM.
With C[C@H](NC(=O)c1nc(-c2ncc(-c3ccccc3)s2)sc1C1CC1)c1ccc(C(=O)NO)cc1 [Compound H08] the IC50 [1, 9] was 8 nM, the IC50 [1, 11] was roughly 8 nM and the “TV d0 (average ± SD)” value [2, 12] was 154 ± 44 mm^3. The “body weight d0” value [2, 12] was 22.1 ± 1.3 g, the “RTV (Average ± SD)” value [2, 13] was 8.40 ± 1.35 and the “TV d21 (average ± SD)” value [2, 13] was 1,279 ± 353 mm^3. For the same compound, the “body weight d21” value [2, 13] was 23.7 ± 0.8 g, the “TV d0 (average ± SD)” value [2, 14] was 154 ± 45 mm^3 and the “body weight d0” value [2, 14] was 22.2 ± 1.1 g. The “RTV (Average ± SD)” value [2, 15] was 5.48 ± 2.99, the “TV d21 (average ± SD)” value [2, 15] was 821 ± 406 mm^3 and the “body weight d21” value [2, 15] was 22.7 ± 0.9 g. The “change in body weight of the mice during the experiment” value ([2]; oral 50 mg/kg for three weeks) was “no change in body weight” and the bioavailability [3] was 34.4%.
Work on C[C@H](NC(=O)c1nc(-c2nccs2)sc1C1CC1)c1ccc(C(=O)NO)cc1 [Compound H02] yielded an IC50 [1, 9] of 28 ± 10 nM.
With Cc1cnc(-c2nc(C(=O)N[C@@H](C)c3ccc(C(=O)NO)cc3)c(C3CC3)s2)s1 [Compound H05] the IC50 [1, 9] was 123 ± 43 nM.
For CC(NC(=O)c1nc(-c2nccs2)sc1C1CC1)c1ccc(C(=O)NO)cc1 (stereo not shown) [Compound H01], the IC50 [1, 9] was 182 ± 15 nM.
C[C@H](NC(=O)c1nc(-c2ncc(-c3ccc(F)cc3)s2)sc1C1CC1)c1ccc(C(=O)NO)cc1 [Compound H09] showed an IC50 [1, 9] of 18 ± 6 nM.
O=C(NO)c1ccc(CNC(=O)c2nc(-c3ncc(-c4ccccc4)s3)sc2C2CC2)cc1 [Compound H12] showed an IC50 (human HDAC1) of 6.71 ± 0.11 nM, an IC50 (human HDAC3) of 6.15 ± 0.25 nM and an IC50 (human HDAC6) of 9.78 ± 0.02 nM. The IC50 [1, 9] was 8 nM and the IC50 [1, 11] was roughly 8 nM.
For CC(C)C[C@H](NC(=O)[C@H](Cc1ccccc1)NC(=O)c1cnccn1)B(O)O [PS341, Bortezomib, reference compound], the “TV d0 (average ± SD)” value [2, 16] was 155 ± 48 mm^3, the “body weight d0” value [2, 16] was 21.9 ± 1.0 g and the “RTV (Average ± SD)” value [2, 17] was 7.19 ± 3.58. For the same compound, the “T/C relative tumor growth rate” value [2, 17] was 45.27%, the “TV d21 (average ± SD)” value [2, 17] was 1,077 ± 538 mm^3 and the “body weight d21” value [2, 17] was 23.3 ± 1.7 g.
For O=C(NCCC(=O)C(F)(F)F)c1nc(-c2nccs2)sc1C1CC1 [GCJ403], the oral bioavailability [4] is given as 14.7%.
Cc1[nH]c2ccccc2c1CCNCc1ccc(/C=C/C(=O)NO)cc1 [LBH589, panobinostat] gave an IC50 (Liver cancer BEL-7404) of 18.6 ± 1.51 nM, an IC50 (Lung Cancer A549) of 48.9 ± 7.01 nM and an IC50 (stomach cancer MKN-74) of 29.2 ± 0.97 nM. The IC50 [5] was 76.9 ± 7.22 nM, the IC50 (lymphoma Ramos) was 7.14 ± 0.42 nM and the IC50 (promyeloid leukemia HL60) was 12.3 ± 0.24 nM. It also gave an IC50 [6] of 15 ± 8.18 nM, an IC50 [7] of 12.3 ± 1.61 nM and an IC50 [8] of 13.7 ± 0.93 nM.
